One assay deals with T1, PLK4 (h) (Homo sapiens, UniProt O00444).
T1 sequence (O00444 1-970): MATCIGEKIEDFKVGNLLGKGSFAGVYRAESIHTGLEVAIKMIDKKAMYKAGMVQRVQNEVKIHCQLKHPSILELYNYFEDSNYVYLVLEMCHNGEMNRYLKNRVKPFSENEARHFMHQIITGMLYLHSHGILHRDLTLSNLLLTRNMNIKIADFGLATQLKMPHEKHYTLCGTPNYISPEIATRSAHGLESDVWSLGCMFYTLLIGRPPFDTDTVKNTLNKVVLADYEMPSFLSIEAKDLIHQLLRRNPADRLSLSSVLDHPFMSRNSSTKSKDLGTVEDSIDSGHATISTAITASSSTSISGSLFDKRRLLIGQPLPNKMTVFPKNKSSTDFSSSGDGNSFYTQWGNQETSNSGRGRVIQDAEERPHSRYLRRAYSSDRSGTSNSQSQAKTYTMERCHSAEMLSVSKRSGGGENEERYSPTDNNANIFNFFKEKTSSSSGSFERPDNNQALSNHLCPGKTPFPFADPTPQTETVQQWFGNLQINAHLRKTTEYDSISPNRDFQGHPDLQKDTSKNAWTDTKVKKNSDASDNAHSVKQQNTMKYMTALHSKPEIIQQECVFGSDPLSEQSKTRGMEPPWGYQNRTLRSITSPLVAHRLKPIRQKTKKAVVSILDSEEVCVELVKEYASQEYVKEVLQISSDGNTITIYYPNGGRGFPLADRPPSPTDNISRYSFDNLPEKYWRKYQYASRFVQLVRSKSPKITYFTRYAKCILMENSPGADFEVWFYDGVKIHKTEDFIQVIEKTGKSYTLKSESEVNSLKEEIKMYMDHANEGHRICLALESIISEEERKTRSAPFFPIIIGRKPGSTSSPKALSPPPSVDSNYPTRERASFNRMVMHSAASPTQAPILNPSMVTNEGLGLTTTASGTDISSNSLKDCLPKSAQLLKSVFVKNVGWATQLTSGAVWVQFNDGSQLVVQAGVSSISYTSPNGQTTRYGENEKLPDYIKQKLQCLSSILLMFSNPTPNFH
Briefly: PLK-4 human kinase scintillation proximity assay (SPA). Type of assay: biochemical. The following applies: 1 μM ATP, 60 minutes at r.t., read-out: PLK4 pIC50 (converted). The essentials: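 Human PLK4 (19 μg/ml) reacted with 10 μM biotinylated peptide, 1 μM ATP plus 2 nM [γ-33P]ATP in HEPES pH 8.0 with MgCl2, NaCl, NaF and DTT for 60 min at r.t. After an EDTA stop, phosphorylated substrate was captured on streptavidin PVT SPA beads and scintillation imaged.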

The next assay deals with U87-MG. Description: Cellular proliferation assay (Alamar blue), U87-MG. Type of assay: cell-based. The following applies: Homo sapiens, U-87 MG; U87-MG cells; 10% FCS; 72 h with compound; Alamar blue 6 h; read-out: pIC50 U87MG (converted). The essentials: (§1)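 10% FCS, 37° C., 5% CO2; seed, 24 h no compound; 72 h compound; Alamar blue (resazurin 9 μg/ml, ferro-/ferricyanide 90 μM each) 4 h HCT-116, 6 h U87-MG, 24 h PC3/A2780; fluorescence 544/590 nm; normalised to controls.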
(Alamar Blue is a resazurin reagent that responds to reducing activity.)

The subject of the next assay is MDA-MB-231. Briefly: Cellular proliferation assay (Alamar blue), MDA-MB-231. The following applies: Homo sapiens, MDA-MB-231, MDA-MB-231 cells; 10% FCS; 72 h with compound; Alamar blue 24 h; read-out: pIC50 MDA/MB231 (converted). Type of assay: cell-based. The essentials:
(§2)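 Viable cell number is determined by Alamar blue conversion after cells are treated with compound for 72 hours, following 24 hours of growth without compound in 10% FCS. The effect is calculated against control cells.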

Another assay concerns H1299. Description: Cellular proliferation assay (Alamar blue), H1299. Type of assay: cell-based. The settings on record: Homo sapiens, NCI-H1299, H1299 cells; 10% FCS; 72 h with compound; Alamar blue 4 h; read-out: pIC50 H1299 (converted). The essentials:
as §2

The subject of another assay is HCT-116. Briefly: Cellular proliferation assay (Alamar blue), HCT-116. Type of assay: cell-based. The settings on record: Homo sapiens; HCT-116 cells; 10% FCS; 72 h with compound; Alamar blue 4 h; read-out: pIC50 HCT-116 (converted). In short, it runs like this: as §1
In a further assay the test system is A2780. Briefly: Cellular proliferation assay (Alamar blue), A2780. Type of assay: cell-based. The following applies: Homo sapiens, A2780, A2780 cells; 10% FCS; 72 h with compound; Alamar blue 24 h; read-out: pIC50 A2780 (converted). The essentials:
as §1

The next assay deals with PC3. Briefly: Cellular proliferation assay (Alamar blue), PC3. The following applies: Homo sapiens, PC-3, PC-3 cells; 10% FCS; 72 h with compound; Alamar blue 24 h; read-out: pIC50 PC-3 (converted). Type of assay: cell-based. In short, it runs like this:
as §1

The structures appear in SMILES notation.

As for `COCCN(CCOc1ccc2cc1OCC(=O)N(C)CCCN(C)Cc1c[nH]c3ncnc(c13)N2)C(C)C` [Compound 140], the IC50 on PLK4 (h) is 158 nM; in the assay with U87-MG, 1000 nM; in the assay with MDA-MB-231, 1.58 µM; in the assay on H1299, 3.16 µM; with HCT-116, 1 µM; with A2780, 1000 nM. Also, the IC50 in the assay with PC3 was 1.58 µM.

Take `CC(C)NC(=O)Nc1ccc2cc1OCC(=O)N(C)CCCN(C)Cc1c[nH]c3ncnc(c13)N2` [Compound 122]: the IC50 was 200 nM at PLK4 (h); above 10000 nM with U87-MG; above 10 µM in the assay with MDA-MB-231; 7.94 µM with H1299; 6.31 µM in the assay on HCT-116; 3980 nM in the assay on A2780. Moreover, in the assay with PC3, the IC50 is above 10 µM.

Regarding `COc1ccc2cc1CN(C)CCCC(=O)N(C)CCCc1c[nH]c3ncnc(c13)N2` [Compound 5], the IC50 on PLK4 (h) is above 10000 nM; with U87-MG, above 10000 nM; in the assay on MDA-MB-231, above 10 µM; in the assay on H1299 it was above 10 µM; in the assay with HCT-116, above 10 µM; with A2780 it was above 10000 nM. Moreover, the IC50 with PC3 is above 10 µM.

With `COc1cc(NC(=O)COc2ccc3cc2OCC(=O)N(C)CCCN(C)Cc2c[nH]c4ncnc(c24)N3)cc(OC)c1OC` [Compound 71], the IC50 at PLK4 (h) is 79.4 nM; in the assay with U87-MG, 2510 nM; in the assay on MDA-MB-231, 5.01 µM; with H1299 it was 3.98 µM; in the assay with HCT-116, 2 µM; in the assay with A2780 it was 1000 nM. For the same compound, in the assay on PC3, the IC50 was 6.31 µM.

In the case of `COc1cc2cc(c1OC)CCC(=O)N(C)CCCN(C)Cc1c[nH]c3ncnc(c13)N2` [Compound 30], the IC50 is above 10000 nM at PLK4 (h); above 10000 nM with U87-MG; above 10 µM in the assay with MDA-MB-231; above 10 µM in the assay on H1299; above 10 µM in the assay with HCT-116; above 10000 nM with A2780. The IC50 in the assay on PC3 is above 10 µM.

Turning to `COc1ccc2cc1OCCCCC(=O)N(C)CCN(C)Cc1c[nH]c3ncnc(c13)N2` [Compound 41], the IC50 at PLK4 (h) is 2510 nM; in the assay with U87-MG, above 10000 nM; with MDA-MB-231 it was above 10 µM; in the assay on H1299, above 10 µM; with HCT-116 it was above 10 µM; in the assay on A2780 it was above 10000 nM. In addition, the IC50 with PC3 was above 10 µM.

For `COc1ccc2cc1OCCCCC(=O)N1CCN(CC1)Cc1c[nH]c3ncnc(c13)N2` [Compound 103], the IC50 on PLK4 (h) was 631 nM; with U87-MG it was above 10000 nM; with MDA-MB-231, above 10 µM; in the assay with H1299 it was above 10 µM; in the assay on HCT-116 it was above 10 µM; in the assay on A2780 it was above 10000 nM. Also, the IC50 in the assay with PC3 is above 10 µM.

As to `COc1ccc(NC(=O)COc2ccc3cc2OCC(=O)N(C)CCCN(C)Cc2c[nH]c4ncnc(c24)N3)cc1` [Compound 129], the IC50 at PLK4 (h) was 50.1 nM; in the assay on U87-MG, 794 nM; in the assay on MDA-MB-231, 1.26 µM; with H1299, 0.2 µM; with HCT-116 it was 0.0794 µM; in the assay with A2780, 63.1 nM. In the assay with PC3, the IC50 is 1 µM.

On to `CCN(CCOC)CCOc1ccc2cc1OCC(=O)N(C)CCCN(C)Cc1c[nH]c3ncnc(c13)N2` [Compound 77], for which the IC50 was 63.1 nM on PLK4 (h); 3160 nM in the assay on U87-MG; 5.01 µM in the assay with MDA-MB-231; 7.94 µM in the assay with H1299; 3.16 µM in the assay with HCT-116; 2510 nM with A2780. Further, the IC50 in the assay on PC3 was 3.16 µM.

Turning to `CN1CCCN(C)C(=O)COc2cc(ccc2OCCCN2CCOCC2)Nc2ncnc3[nH]cc(c23)C1` [Compound 137], the IC50 on PLK4 (h) was 398 nM; in the assay on U87-MG, 1580 nM; with MDA-MB-231 it was 3.16 µM; in the assay with H1299, 3.98 µM; with HCT-116, 1.26 µM; in the assay on A2780, 794 nM. In the assay with PC3, the IC50 was 3.16 µM.

As to `CN1CCCN(C)C(=O)COc2cc(ccc2OCCCNc2ccc(Cl)cc2)Nc2ncnc3[nH]cc(c23)C1` [Compound 142], the IC50 was 79.4 nM on PLK4 (h); 3160 nM in the assay on U87-MG; above 10 µM in the assay on MDA-MB-231; 2 µM in the assay with H1299; 0.631 µM with HCT-116; 398 nM in the assay on A2780. Also, the IC50 in the assay on PC3 is 10 µM.

`COc1cc2cc(c1OC)OCCCC(=O)N1CCN(CC1)Cc1c[nH]c3ncnc(c13)N2` [Compound 112]: the IC50 was above 10000 nM on PLK4 (h); above 10000 nM in the assay with U87-MG; above 10 µM in the assay with MDA-MB-231; above 10 µM in the assay with H1299; above 10 µM with HCT-116; above 10000 nM in the assay with A2780. Moreover, in the assay with PC3, the IC50 is above 10 µM.

For the compound `CN1CCN(C)C(=O)CCCCOc2cccc(c2)Nc2ncnc3[nH]cc(c23)C1` [Compound 2], the IC50 on PLK4 (h) is 3160 nM; in the assay with U87-MG it was above 10000 nM; with MDA-MB-231, above 10 µM; with H1299, above 10 µM; with HCT-116, above 10 µM; with A2780, above 10000 nM. Further, the IC50 with PC3 was above 10 µM.

Take `COCCN1CC(=O)N(C)CCCc2c[nH]c3ncnc(c23)Nc2ccc(OC)c(c2)C1` [Compound 36]: the IC50 on PLK4 (h) is above 10000 nM; in the assay on U87-MG, above 10000 nM; in the assay with MDA-MB-231, above 10 µM; in the assay with H1299 it was above 10 µM; in the assay with HCT-116 it was above 10 µM; in the assay with A2780 it was above 10000 nM. Further, in the assay with PC3, the IC50 is above 10 µM.

Regarding `CN1CCN(C)C(=O)CCCCOc2cc(ccc2N2CCOCC2)Nc2ncnc3[nH]cc(c23)C1` [Compound 48], the IC50 was above 10000 nM on PLK4 (h); above 10000 nM with U87-MG; above 3.16 µM in the assay with MDA-MB-231; above 10 µM in the assay on H1299; above 10 µM with HCT-116; above 10000 nM in the assay on A2780. Further, the IC50 with PC3 is above 10 µM.

Take `CN1CCCN(C)C(=O)COc2cc(ccc2OCCN2CCCCC2)Nc2ncnc3[nH]cc(c23)C1` [Compound 136]: the IC50 on PLK4 (h) was 251 nM; in the assay with U87-MG, 1580 nM; in the assay with MDA-MB-231, 3.16 µM; with H1299, 5.01 µM; in the assay with HCT-116, 2.51 µM; in the assay on A2780, 1000 nM. Further, the IC50 in the assay with PC3 is 2.51 µM.

Consider `COCCOc1ccc2cc1OCC(=O)N(C)CCCN(C)Cc1c[nH]c3ncnc(c13)N2` [Compound 119], for which the IC50 on PLK4 (h) was 25.1 nM; with U87-MG it was 1580 nM; in the assay on MDA-MB-231 it was 2 µM; with H1299 it was 1 µM; in the assay on HCT-116 it was 0.316 µM; in the assay on A2780, 316 nM. Also, the IC50 in the assay with PC3 was 2.51 µM.

Consider `COc1ccc2cc1CN(C)CCC(=O)N(C)CCCc1c[nH]c3ncnc(c13)N2` [Compound 4], for which the IC50 on PLK4 (h) was above 10000 nM; in the assay with U87-MG, above 10000 nM; in the assay with MDA-MB-231 it was above 10 µM; with H1299, above 10 µM; in the assay with HCT-116, above 10 µM; in the assay with A2780, above 10000 nM. Besides, the IC50 in the assay with PC3 is above 10 µM.

With `CN1CCCN(C)C(=O)COc2cc(ccc2NC(=O)NC2CCCC2)Nc2ncnc3[nH]cc(c23)C1` [Compound 66], the IC50 on PLK4 (h) was 39.8 nM; in the assay with U87-MG, 1580 nM; in the assay on MDA-MB-231, above 10 µM; in the assay with H1299 it was above 10 µM; in the assay with HCT-116, 5.01 µM; in the assay with A2780, above 10000 nM. Also, the IC50 in the assay on PC3 is 7.94 µM.

These data come from patent US8318731B2, “Pyrrolopyrimidines” (Janssen Pharmaceutica NV, priority 2007, dated 2012).
